According to patent US11793861B2, “PTH prodrugs” (ASCENDIS PHARMA BONE DISEASES A/S, priority 2016, dated 2023):

Assays:
[1] = system: thyroparathyroidectomised (TPTx) rats; assay: Pharmacodynamic actions in thyroparathyroidectomised (TPTx) rats, 28-days daily subcutaneous injections; format: in vivo, SD rats
Description: Quantitative measurements of serum calcium (sCa), urinary calcium and serum phosporous (sP) were performed on a Roche-Hitachi P800 modular biochemistry instrument.
Rats subjected to thyroparathyroidectomy (TPTx) by blunt dissection are unable to produce parathyroid hormone, PTH, the major regulator of calcium homeostasis. […] Additionally, one group of sham operated rats (n=9) representing normophysiological background control were also given vehicle. Serum calcium (sCa) and phosporous (sP) levels in the animals were measured pre- and post-dose on days 1, 6, 12 and 27. Moreover, bone turnover markers (P1NP and CTx) were measured and bone quality assessed by ex vivo pQCT.

[2] = cited from earlier work

PTH(1-84): Natpara®, PTH(1-84), approved by the FDA for hypoparathyroidism; the current standard of care (SEQ ID NO:1)
trabecular BMD compared to both control groups ([1]; 28 days treatment): significant increase
effect on serum phosphorous (sP) ([1]; TPTx rats, daily sc): minimal decrease
effect on serum calcium (sCa) ([1]; TPTx rats, daily sc, 18 at […], PTH(1-84) at 7.3 nmol/kg/d): did not lead to increase in sCa
serum calcium (sCa) at day 12 ([1]; TPTx rats, 18 at […], PTH(1-84) at 7.3 nmol/kg/d, sc): 8.1 mg/dL
trabecular and cortical BMD in vertebrae ([1]; following 28 days of treatment): anabolic effect
PTH Cmax ([2]; currently approved doses): 0.3 ng/mL
control of urinary calcium excretion ([2]; daily injections, FDA review): failed to provide adequate control
incidence of hypercalcemia and hypocalcemia compared to placebo ([2]; in vivo): did not improve
